The results in this text go back to publication PMC10468883, “Synthesis and Anticancer Activities of Pyrazole–Thiadiazole-Based EGFR Inhibitors” (ACS Omega, 2023).

Each structure is given as a SMILES string.

One test concerns MCF-7 cell line. Kind of test: MTT cytotoxicity assay (24 h), MCF-7 cell line. Type of test: cell-based. Particulars: for IC50: MTT, 24 h, MCF-7 cell line, means of quartet assays; for SI for MCF-7: selectivity index, NIH3T3 vs MCF-7. As to the method: (§1) The principle of the MTT test used to determine the metabolic activity of living cells is based on the reduction of […] 3-(4,5-dimethylthiazol-2-yl)-2,5 diphenyltetrazolium salt to the purple-colored formazan product. Thanks to this color change, the cell viability rate can be determined spectrometrically.[33]Table 1 presents the results of the MTT experiment performed with the 24 h procedure using two cancer lines (A549 and MCF-7) and a healthy cell line (NIH3T3). Doxorubicin is used as a reference drug. MTT assays were performed as previously described.[34]−[36]
(§2) Cytotoxicity assays of compounds 6a–6j were performed with the 24 h MTT procedure. […]. […] […]. […] The selectivity indexes of compounds 6d, 6g, and 6j were calculated as 2.3, 7.23, and 5.68, respectively. […] It can be predicted that the side effect and toxic effect profile of compound 6g will be less than that of compounds 6d and 6j.
(Tetrazolium dyes change colour on reduction, which living cells bring about.)

The next test deals with NIH3T3 healthy cell line. The test is described as follows: MTT cytotoxicity assay (24 h), healthy cell line NIH3T3. Type of test: cell-based. Particulars: means of quartet assays. As to the method:
as §1, §2

Another test has as its system A549 cell line. Kind of test: MTT cytotoxicity assay (24 h), A549 cell line. To be noted: for SI for A549: selectivity index, NIH3T3 vs A549. In kind it is cell-based. As to the method: Thanks to this color change, the cell viability rate can be determined spectrometrically.[33]Table 1 presents the results of the MTT experiment performed with the 24 h procedure using two cancer lines (A549 and MCF-7) and a healthy cell line (NIH3T3). Doxorubicin is used as a reference drug. MTT assays were performed as previously described.[34]−[36] Cytotoxicity assays of compounds 6a–6j were performed with the 24 h MTT procedure. […] These compounds include allyl (6d), phenyl (6g), and 4-chlorophenyl (6j) moieties. […] The selectivity indexes of compounds 6d, 6g, and 6j were calculated as 2.3, 7.23, and 5.68, respectively. […] It can be predicted that the side effect and toxic effect profile of compound 6g will be less than that of compounds 6d and 6j.

The next test has as its target T1, EGFR enzyme (Homo sapiens, UniProt P00533).
T1 construct: purchased
The test is described as follows: EGFR Kinase Assay Kit inhibition assay. In kind it is biochemical. Particulars: in vitro kit method. As to the method: The EGFR Kinase Assay Kit (available from ref ([38])) was used for the EGFR inhibition. The kit protocol was followed, and the experiment was carried out in vitro.
EGFR kinase, which belongs to the ErbB family of tyrosine kinases, is known to regulate the signaling pathways of cell survival, migration, proliferation, differentiation, and adhesion.[52] Inhibition of this member of the tyrosine kinase family, which is a new approach in cancer chemotherapy, is important.

In the next test the test system is A549 cells. Kind of test: Mitochondrial membrane potential (MMP) by flow cytometry, JC-1 dye. Type of test: cell-based. To be noted: substance at IC50 concentration, 24 h incubation.
Where [1] appears, read: Homo sapiens, A549, 24 h, MTT, 24 h, A549 cell line, means of quartet assays.
The mark [2] stands for this setting: MTT, 24 h, A549 cell line, means of quartet assays.

T1 sequence (P00533 25-1210): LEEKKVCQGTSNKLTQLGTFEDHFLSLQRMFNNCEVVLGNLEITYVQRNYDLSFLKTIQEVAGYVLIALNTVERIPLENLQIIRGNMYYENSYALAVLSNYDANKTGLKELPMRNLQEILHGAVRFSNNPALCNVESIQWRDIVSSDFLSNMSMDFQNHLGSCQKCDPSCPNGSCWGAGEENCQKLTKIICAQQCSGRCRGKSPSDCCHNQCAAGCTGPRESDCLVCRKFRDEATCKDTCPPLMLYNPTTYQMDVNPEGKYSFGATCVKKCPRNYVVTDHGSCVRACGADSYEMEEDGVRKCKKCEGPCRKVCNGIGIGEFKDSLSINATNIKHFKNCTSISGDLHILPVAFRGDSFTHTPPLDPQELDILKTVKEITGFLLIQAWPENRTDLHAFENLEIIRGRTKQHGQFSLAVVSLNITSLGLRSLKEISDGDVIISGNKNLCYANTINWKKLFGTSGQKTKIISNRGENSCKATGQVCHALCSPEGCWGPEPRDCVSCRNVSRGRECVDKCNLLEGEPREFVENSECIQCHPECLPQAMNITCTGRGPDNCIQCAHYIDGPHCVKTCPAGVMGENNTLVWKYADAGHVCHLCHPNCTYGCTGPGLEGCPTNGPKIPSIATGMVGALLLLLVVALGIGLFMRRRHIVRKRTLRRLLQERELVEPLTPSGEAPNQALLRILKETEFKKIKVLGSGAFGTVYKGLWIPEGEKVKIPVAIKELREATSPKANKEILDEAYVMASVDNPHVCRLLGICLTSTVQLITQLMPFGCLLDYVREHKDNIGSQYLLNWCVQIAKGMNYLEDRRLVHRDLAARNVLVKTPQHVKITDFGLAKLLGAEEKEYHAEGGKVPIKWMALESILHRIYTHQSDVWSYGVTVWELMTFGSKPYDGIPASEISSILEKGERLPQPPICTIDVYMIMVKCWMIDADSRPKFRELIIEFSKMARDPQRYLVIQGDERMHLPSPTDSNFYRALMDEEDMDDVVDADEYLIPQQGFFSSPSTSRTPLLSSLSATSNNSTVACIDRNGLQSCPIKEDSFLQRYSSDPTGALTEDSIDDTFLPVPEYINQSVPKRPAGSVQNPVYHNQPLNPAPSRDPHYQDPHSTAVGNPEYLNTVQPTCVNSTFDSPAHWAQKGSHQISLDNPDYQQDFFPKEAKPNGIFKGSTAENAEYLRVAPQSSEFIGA
Experimental for A549 cells: In the first step, A549 cells seeded in 25 mL flasks were incubated for 24 h in a 5% CO2 incubator. […] Cells were collected and centrifuged in line with the instructions in the kit at the conclusion of this period. The upper part was removed, JC-1 dye was added, and the mixture was incubated for 10–15 min at 37 °C. The CytoFLEX flow cytometer (Beckman Coulter Life Sciences, USA) and CytExpert for CytoFLEX Acquisition and Analysis Software Version 2.2.0.97 were used to read it after two washings with washing solution at the conclusion of the period.
Both the inhibitory compound and the reference drug were administered at IC50 concentrations. After a 24 h incubation period (5% CO2), mitochondrial membrane potential was determined by flow cytometry using JC-1 dye.

Consider `CCCNc1nnc(SCC(=O)N2N=C(c3ccccc3)CC2c2ccc([N+](=O)[O-])cc2)s1` (stereo not drawn) [Compound 6b, 1-(5-(4-Nitrophenyl)-3-phenyl-4,5-dihydro-1H-pyrazol-1-yl)-2-((5-(propylamino)-1,3,4-thiadiazol-2-yl)thio)ethan-1-one], for which the IC50 (commonly the point on the concentration scale where inhibition reaches its midpoint) in the test with MCF-7 cell line (Homo sapiens, MCF7, 24 h) was 63.4 ± 2.09 µM; in the test with NIH3T3 healthy cell line (Mus musculus, NIH3T3, 24 h), 47.2 ± 4.53 µM; with A549 cell line (setting [1]), 15.8 ± 0.75 µM.
As to `O=C(CSc1nnc(Nc2ccccc2)s1)N1N=C(c2ccccc2)CC1c1ccc([N+](=O)[O-])cc1` (stereo not drawn) [Compound 6g, 1-(5-(4-Nitrophenyl)-3-phenyl-4,5-dihydro-1H-pyrazol-1-yl)-2-((5-(phenylamino)-1,3,4-thiadiazol-2-yl)thio)ethan-1-one], the half-inhibitory concentration (IC50) came to 15.93 ± 0.054 µM in the test on MCF-7 cell line (Homo sapiens, MCF7, 24 h); 15.93 ± 0.05 µM in the test with MCF-7 cell line; 11.1 ± 0.205 µM in the test on NIH3T3 healthy cell line (Mus musculus, NIH3T3, 24 h); 11.1 ± 0.21 µM in the test with NIH3T3 healthy cell line; 0.024 ± 0.002 µM against EGFR enzyme. Also, in the test on MCF-7 cell line, the “SI for MCF-7” value is reported as 0.70. For the same molecule, the “mitochondrial membrane potential (P3)” value in the test on A549 cells is reported as 80.93%. Moreover, the “SI for A549” value with A549 cell line stood at 7.22.
Consider `O=C(CSc1nnc(NC2CCCCC2)s1)N1N=C(c2ccccc2)CC1c1ccc([N+](=O)[O-])cc1` (stereo not drawn) [Compound 6f, 2-((5-(Cyclohexylamino)-1,3,4-thiadiazol-2-yl)thio)-1-(5-(4-nitrophenyl)-3-phenyl-4,5-dihydro-1H-pyrazol-1-yl)ethan-1-one], for which the IC50 in the test on MCF-7 cell line (Homo sapiens, MCF7, 24 h) was greater than 100 µM; with NIH3T3 healthy cell line (Mus musculus, NIH3T3, 24 h), 60.5 ± 3.72 µM; in the test on A549 cell line (setting [1]), greater than 100 µM. Moreover, the “SI for MCF-7” value in the test on MCF-7 cell line was less than 0.61. Moreover, the “IC50 A549” value with A549 cell line (setting [2]) is listed as “no activity”. In addition, the “SI for A549” value with A549 cell line is on record as less than 0.61.
`CCNc1nnc(SCC(=O)N2N=C(c3ccccc3)CC2c2ccc([N+](=O)[O-])cc2)s1` (stereo not drawn) [Compound 6a, 2-((5-(Ethylamino)-1,3,4-thiadiazol-2-yl)thio)-1-(5-(4-nitrophenyl)-3-phenyl-4,5-dihydro-1H-pyrazol-1-yl)ethan-1-one]: the IC50 in the test with MCF-7 cell line (Homo sapiens, MCF7, 24 h) was greater than 100 µM; with NIH3T3 healthy cell line (Mus musculus, NIH3T3, 24 h) it was 86.7 ± 4.07 µM; in the test on A549 cell line (setting [1]), 13.9 ± 0.25 µM. Moreover, the “SI for MCF-7” value in the test with MCF-7 cell line is recorded as less than 0.87. In the test on A549 cell line, the “SI for A549” value was 6.24.
`COc1cccc2c1C(=O)c1c(O)c3c(c(O)c1C2=O)C[C@@](O)(C(=O)CO)C[C@@H]3O[C@H]1C[C@H](N)[C@H](O)[C@H](C)O1` [doxorubicin, reference compound]: the IC50 in the test with MCF-7 cell line (Homo sapiens, MCF7, 24 h) was 1.59 ± 0.1 µM; in the test on NIH3T3 healthy cell line (Mus musculus, NIH3T3, 24 h), greater than 1000 µM; in the test with A549 cell line (setting [1]), 2.67 ± 0.12 µM. The “SI for MCF-7” value in the test with MCF-7 cell line is recorded as greater than 629.33. Further, in the test on A549 cells, the “mitochondrial membrane potential (P3)” value amounted to 30.27%. Further, the “SI for A549” value in the test with A549 cell line is recorded as greater than 374.95.
Regarding `COc1ccc(Nc2nnc(SCC(=O)N3N=C(c4ccccc4)CC3c3ccc([N+](=O)[O-])cc3)s2)cc1` (stereo not drawn) [Compound 6i, 2-((5-((4-Methoxyphenyl)amino)-1,3,4-thiadiazol-2-yl)thio)-1-(5-(4-nitrophenyl)-3-phenyl-4,5-dihydro-1H-pyrazol-1-yl)ethan-1-one], the IC50 is greater than 100 µM with MCF-7 cell line (Homo sapiens, MCF7, 24 h); greater than 100 µM in the test on NIH3T3 healthy cell line (Mus musculus, NIH3T3, 24 h); 16.6 ± 0.21 µM in the test on A549 cell line (setting [1]). For the same molecule, the “SI for A549” value with A549 cell line is recorded as greater than 6.01.
As to `C=CCNc1nnc(SCC(=O)N2N=C(c3ccccc3)CC2c2ccc([N+](=O)[O-])cc2)s1` (stereo not drawn) [Compound 6d, 2-((5-(Allylamino)-1,3,4-thiadiazol-2-yl)thio)-1-(5-(4-nitrophenyl)-3-phenyl-4,5-dihydro-1H-pyrazol-1-yl)ethan-1-one], the 50% inhibitory concentration (IC50) in the test on MCF-7 cell line (Homo sapiens, MCF7, 24 h) came out at 35.7 ± 2.24 µM; with MCF-7 cell line, 35.7 ± 2.24 µM; in the test on NIH3T3 healthy cell line (Mus musculus, NIH3T3, 24 h), 11.9 ± 0.486 µM; in the test with NIH3T3 healthy cell line, 11.9 ± 0.49 µM; in the test with A549 cell line (setting [1]), 5.18 ± 0.164 µM; in the test with A549 cell line (setting [2]) it was 5.18 ± 0.16 µM. The “SI for MCF-7” value in the test with MCF-7 cell line was determined as 0.33. For the same molecule, the “SI for A549” value in the test with A549 cell line is on record as 2.3.
For the molecule `Cc1ccc(Nc2nnc(SCC(=O)N3N=C(c4ccccc4)CC3c3ccc([N+](=O)[O-])cc3)s2)cc1` (stereo not drawn) [Compound 6h, 1-(5-(4-Nitrophenyl)-3-phenyl-4,5-dihydro-1H-pyrazol-1-yl)-2-((5-(p-tolylamino)-1,3,4-thiadiazol-2-yl)thio)ethan-1-one], the IC50 was 92.6 ± 1.89 µM with MCF-7 cell line (Homo sapiens, MCF7, 24 h); greater than 100 µM in the test on NIH3T3 healthy cell line (Mus musculus, NIH3T3, 24 h); 29.1 ± 1.01 µM in the test with A549 cell line (setting [1]). In the test with MCF-7 cell line, the “SI for MCF-7” value is listed as greater than 1.08. Further, the “SI for A549” value in the test on A549 cell line is on record as greater than 3.44.
Take `CC(C)Nc1nnc(SCC(=O)N2N=C(c3ccccc3)CC2c2ccc([N+](=O)[O-])cc2)s1` (stereo not drawn) [Compound 6c, 2-((5-(Isopropylamino)-1,3,4-thiadiazol-2-yl)thio)-1-(5-(4-nitrophenyl)-3-phenyl-4,5-dihydro-1H-pyrazol-1-yl)ethan-1-one]: the IC50 was greater than 100 µM in the test with MCF-7 cell line (Homo sapiens, MCF7, 24 h); 33.2 ± 2.37 µM with NIH3T3 healthy cell line (Mus musculus, NIH3T3, 24 h); 27.9 ± 1.28 µM in the test with A549 cell line (setting [1]). The “SI for MCF-7” value in the test on MCF-7 cell line is reported as less than 0.33. In addition, in the test with A549 cell line, the “SI for A549” value was 1.19.
With `O=C(CSc1nnc(Nc2ccc(Cl)cc2)s1)N1N=C(c2ccccc2)CC1c1ccc([N+](=O)[O-])cc1` (stereo not drawn) [Compound 6j, 2-((5-((4-Chlorophenyl)amino)-1,3,4-thiadiazol-2-yl)thio)-1-(5-(4-nitrophenyl)-3-phenyl-4,5-dihydro-1H-pyrazol-1-yl)ethan-1-one], the IC50 with MCF-7 cell line (Homo sapiens, MCF7, 24 h) stood at 67.2 ± 3.63 µM; in the test on MCF-7 cell line it was 67.2 ± 3.63 µM; with NIH3T3 healthy cell line (Mus musculus, NIH3T3, 24 h), 48.3 ± 1.72 µM; with A549 cell line (setting [1]), 8.49 ± 0.667 µM; in the test on A549 cell line (setting [2]), 8.49 ± 0.67 µM. Besides, the “SI for MCF-7” value in the test with MCF-7 cell line was found to be 0.72. Also, in the test with A549 cell line, the “SI for A549” value is on record as 5.68.
